Source: PMC7187627 (Antimicrobial Agents and Chemotherapy, 2019)
Entries after “also recorded” stand apart in the source; their conditions may differ.

Assay: Safety and tolerability (adverse events, laboratory tests, ECG), multiple-ascending-dose phase 1 study
Assay type: in vivo
Source text: Subjects were monitored closely with serial physical examinations, blood evaluations, and 12-lead ECGs. Subjects underwent safety laboratory testing, including measurement of blood cell counts (white blood cell [WBC] with differential, hemoglobin, and platelets), serum chemistry (sodium, potassium, chloride, calcium, bicarbonate, glucose, creatinine, blood urea nitrogen [BUN], creatine kinase [CK], aspartate aminotransferase [AST], alanine aminotransferase [ALT], alkaline phosphatase [ALP], total bilirubin, protein, albumin, amylase, and lipase) and urinalysis (protein, blood, and glucose). Study halting criteria had been established and were reviewed by an independent safety monitor (ISM) and the Safety Monitoring Committee (SMC) prior to proceeding with dosing within a cohort or to the next cohort.
The safety population included all subjects who received at least one dose of the study drug. The safety and tolerability of CRS3123 were evaluated by the sequential review of reported adverse events (AEs), changes from baseline in physical examination findings, vital sign measurements, safety laboratory tests (hematology, clinical chemistry, and urinalysis), and key 12-lead ECG findings. All safety assessments were summarized with descriptive statistics or frequency counts.
The period of observation for AE reporting began on day 1 at the time of study drug administration and continued through the final visit.
All AEs were coded to system organ class (SOC) and preferred term (PT) using the Medical Dictionary for Regulatory Activities (MedDRA), version 17.0 (https://www.meddra.org/). A treatment-emergent AE (TEAE) was defined as any AE that occurred during the study observation period (i.e., from day 1 at the time of study drug administration through the final visit). An AE with a partial onset date was classified as a TEAE if the reported partial onset date could not definitely be identified as before the date of study drug administration. Any AE with a missing onset date or missing time on day of study drug administration was classified as a TEAE.
To count the overall number of subjects who experienced each TEAE and calculation of an occurrence rate, a subject experiencing multiple occurrences of an AE was counted only once for that PT. Similarly, if a subject experienced multiple TEAEs within the same SOC, that subject was counted once to calculate an occurrence rate for the SOC. To count the number of subjects who experienced each TEAE by severity classification (mild, moderate, severe, and life-threatening) and calculate an occurrence rate, a subject experiencing multiple occurrences of an AE of the same severity was counted once in that particular severity classification for that PT. If a subject experienced multiple occurrences of an AE of differing severities, only the most severe occurrence within each PT was counted.

[1] = 200, 400, 600 mg orally twice daily for 10 days
[2] = all TEAEs, Cohort A, 200 mg Q12h (n = 8)

## O=c1cc(NCCCN[C@@H]2CCOc3c(Br)cc(Br)cc32)[nH]c2ccsc12 [CRS3123]
12-lead ECG, all doses
  QTcF interval: no QTcF interval changes; also recorded: no prolongation of the QTcF interval
[1]
  deaths, serious adverse events, severe TEAEs: no serious adverse events (SAEs) or severe treatment-emergent adverse events (TEAEs) reported
  overall safety and tolerability: generally safe and well tolerated
Active groups (placebo 33.3%)
  proportion of subjects reporting at least one treatment-related AE: 12.5 % subjects
All TEAEs, All active (n = 24)
  No. (%) of subjects: Alanine aminotransferase increased: 3 (12.5)
  No. (%) of subjects: Amylase increased: 3 (12.5)
  No. (%) of subjects: Anxiety: 1 (4.2)
  No. (%) of subjects: Arthropod bite: 1 (4.2)
  No. (%) of subjects: Aspartate aminotransferase increased: 2 (8.3)
  No. (%) of subjects: Blood bilirubin increased: 1 (4.2)
  No. (%) of subjects: Blood calcium increased: 1 (4.2)
  No. (%) of subjects: Blood potassium increased: 1 (4.2)
  No. (%) of subjects: Blood pressure, diastolic, decreased: 1 (4.2)
  No. (%) of subjects: Blood pressure, diastolic, increased: 1 (4.2)
  No. (%) of subjects: Blood pressure, systolic, decreased: 0 (0.0)
  No. (%) of subjects: Blood pressure, systolic, increased: 1 (4.2)
  No. (%) of subjects: Diarrhea: 2 (8.3)
  No. (%) of subjects: Dry skin: 1 (4.2)
  No. (%) of subjects: Dysgeusia: 1 (4.2)
  No. (%) of subjects: Ear and labyrinth disorders (system organ class): 1 (4.2)
  No. (%) of subjects: Ear discomfort: 1 (4.2)
  No. (%) of subjects: Erythema: 1 (4.2)
  No. (%) of subjects: Gastrointestinal disorders (system organ class): 2 (8.3)
  No. (%) of subjects: General disorders and administration site conditions (system organ class): 1 (4.2)
  No. (%) of subjects: Headache: 2 (8.3)
  No. (%) of subjects: Hemoglobin decreased: 4 (16.7)
  No. (%) of subjects: Infections and infestations (system organ class): 1 (4.2)
  No. (%) of subjects: Infusion site thrombosis: 1 (4.2)
  No. (%) of subjects: Injury, poisoning, and procedural complications (system organ class): 1 (4.2)
  No. (%) of subjects: Investigations (system organ class): 15 (62.5)
  No. (%) of subjects: Lipase increased: 5 (20.8)
  No. (%) of subjects: Musculoskeletal and connective tissue disorders (system organ class): 1 (4.2)
  No. (%) of subjects: Myalgia: 1 (4.2)
  No. (%) of subjects: Nervous system disorders (system organ class): 3 (12.5)
  No. (%) of subjects: Oropharyngeal pain: 1 (4.2)
  No. (%) of subjects: Psychiatric disorders (system organ class): 1 (4.2)
  No. (%) of subjects: Respiratory, thoracic, and mediastinal disorders (system organ class): 2 (8.3)
  No. (%) of subjects: Skin and subcutaneous tissue disorders (system organ class): 2 (8.3)
  No. (%) of subjects: Subjects with TEAEs: 20 (83.3)
  No. (%) of subjects: Throat irritation: 1 (4.2)
  No. (%) of subjects: Upper respiratory tract infection: 1 (4.2)
  No. (%) of subjects: White blood cell count increased: 0 (0.0)
[2]
  No. (%) of subjects: Alanine aminotransferase increased: 1 (12.5)
  No. (%) of subjects: Amylase increased: 1 (12.5)
  No. (%) of subjects: Anxiety: 1 (12.5)
  No. (%) of subjects: Arthropod bite: 1 (12.5)
